Values after ≈ are worked out from the molar mass of the structure shown. Non-standard residues stand in square brackets, D forms with d. No end group written: not given here.

One assay relates to Candida. Kind of assay: Ex vivo human nail fragment model, treatment of Candida infection. The assay is classed as cell-based. The text has this: Trichophyton rubrum strain NCPF0118 was obtained from the National Collection of Pathogenic Fungi, Bristol, UK. Clinical isolates of T. rubrum DM2006 1661, T. rubrum DM2006 1358, T. mentagrophytes DM2006 1503, T. mentagrophytes DM2006 1498 were isolated from patients suffering a range of tinea infections and were purchased from Professor Michel Monod (Service de Dermatologie, Université de Lausanne, Switzerland). Clinical isolates of Candida samples were also obtained from patients suffering from Candidal infection.
The procedure was carried out as described for Example 1 above with modifications to the vehicle, and fungal strains used. Each nail was inoculated with 10 μl of a spore suspension of Candida. Following inoculation the nails were treated with 10% (w/v) Novexatin® (NP213) in a vehicle solution of 50% (w/v) PEG 8000 plus 20% (w/v) urea; 10% (w/v) NP339 in a vehicle solution of 50% (w/v) PEG 8000 plus 20% (w/v) urea; 10% (w/v) NP339 in a vehicle solution of water; a control solution of 50% (w/v) PEG 8000 plus 20% (w/v) urea; a control solution of water; a solution of 16 μg/ml Itraconazole® and 1.6% (w/v) DMSO in a vehicle solution of water and a control solution of 1.6% (w/v) DMSO. As for Experiment 1 above, nail fragments were treated daily for up to 28 days. […]
At the end of the treatment period, the nail fragments were placed in sterile 2 ml microcentrifuge tubes containing 450 μl of a suspension broth consisting of Sabouraud's Liquid Medium, pH 5.6, containing approximately 100 mg of sterile zirconia beads (0.5 mm diameter). […] Colonies were counted on dishes that contained between 20 and 200 colonies in total, and the total number of cfu present in each sample was calculated. […] The counts were corrected for the surface area of the nails studied to give cfu/cm^2, transformed to log10 and means and standard errors of the mean were calculated using GraphPad Prism 4 (GraphPad, San Diego, Calif.). […] When very low numbers of colonies were detected, as in Experiment 3, the calculated cfu values are shown in order to indicate trends.

The test system of assay [1] is Trichophyton rubrum strain NCPF0118. Kind of assay: Ex vivo human nail fragment model, treatment of established infection (cfu recovered). It is filed as cell-based. As to conditions: Experiment 5; fluconazole at approximately 100×MIC100; 14 d and 28 d, daily. How it is done: For antifungal efficacy studies with human toe nails, a solution of 50% (w/v) PEG 8000 (Sigma-Aldrich; Cat No P2139) was prepared by autoclaving and then diluting with sterile 50% (w/v) urea solution (Sigma-Aldrich; Cat No 51457). This solution was mixed thoroughly by vortexing and allowed to stabilise at 50° C. for up to 2 h. After stabilisation, the temperature was allowed to drop to below 40° C. and a concentrated, filter-sterilised solution of Novexatin® (NP213), dissolved in deionised water was added. Final concentrations of PEG 8000 of 50% (w/v), urea of 0-20% (w/v) and Novexatin® (NP213) of 0-10% (w/v) were used in the experiments described below.
On arrival, the cultures were transferred to a Petri dish containing sterile Sabouraud Dextrose agar (Sigma-Aldrich; Cat No 84088, or equivalent) and grown for up to 7 d at 30° C. The resulting growth was scraped off and re-suspended in Sabouraud's liquid medium (Oxoid; Cat No CM 147, or equivalent) containing […] dimethyl sulfoxide (DMSO) as cryoprotectant to create a culture stock. The fungus was stored in 0.5 ml aliquots in 2 ml screw-capped polypropylene vials (Cryovials) at −80° C. Seven days prior to experimental use, 50 μl of the culture stock was used to inoculate a slope of Potato Dextrose agar (Merck; Cat No VM556130 609, or equivalent), which was incubated at 30° C. for up to 7 d. The surface of the resulting growth was gently perturbed in 3 ml of sterile distilled/deionised water. After filtration through 2 layers of sterile surgical gauze to remove debris and larger clumps of biomass, the absorbance of the resultant spore suspension was measured at 530 nm, then adjusted to the 0.5 MacFarland standard (OD approx. 0.15)^2.
Human toe nails were obtained from a podiatrist in Aberdeen following a successful application to the Grampian Local Research Ethics Committee. […] Large toe nails were cut into 4 pieces, each approximately 1 cm^2 in area, using nail clippers. Nails of normal thickness (≦2 mm) were chosen. The 4 fragments cut from each single nail were placed in quadrants marked on Petri-dishes containing phosphate buffered saline rendered solid with 1.2% (w/v) Technical Agar No. 3 (Oxoid; Cat No LP0013, or equivalent), subsequently referred to as PBS agar. The nail fragments were of irregular shape, so to ensure that each nail received the appropriate amount of the treatment solutions, the surface area was measured by photographing the nails over graph paper and determining the number of 1mm^2 squares covered by each nail. The thickness of the nails was measured with a micrometer and nails distributed among treatment groups, to avoid nail thickness providing an additional experimental variable.
Twenty four nail fragments from 6 whole large toenails were each inoculated with 10 μl of a spore suspension of T. rubrum NCPF0118 which was prepared as described above. The inoculum was applied to the ventral side of the nail (i.e. the side next to the skin in situ). The nails were incubated for 7 d at 30° C. to allow the fungus to infect the nail tissue. After this pre-incubation period, 12 of the fragments were assigned to each of 2 different treatment protocols, involving daily treatment with 2 different vehicle solutions, each containing a control and 3 different concentrations of Novexatin® (NP213). These vehicle solutions were: 50% (w/v) PEG 8000, and 50% (w/v) PEG 8000 plus 20% (w/v) urea. The concentrations of Novexatin® (NP213) studied were 0%, 1%, 5% and 10% (w/v). The solutions were applied at a volume of 10 μl/cm^2, corrected for the surface area of the different nail fragments as described above. The applied solution was spread over the dorsal side of the nail, to mimic the intended clinical treatment and the ventral side of the nail rested on the agar surface. Each time the nails were treated, they were transferred to a new sterile Petri dish containing PBS agar to minimise any build-up of fungal growth on the agar. Nail fragments were treated daily for 28 days. […]

For the next assay, the system named is T. rubrum NCPF0118. Kind of assay: In vitro MIC100 testing. The assay is classed as cell-based, Trichophyton rubrum. As to conditions: Trichophyton rubrum; versus T. rubrum NCPF0118 in vitro; read-out: concentration equal to 100× the MIC100.

On to `CN(C/C=C/C#CC(C)(C)C)Cc1cccc2ccccc12` [Terbinafine®, [(2E)-6,6-dimethylhept-2-en-4-yn-1-yl](methyl)(naphthalen-1-ylmethyl)amine, reference compound], for which the outcome of treatment in the assay on Candida (Experiment 7, 10 μg/ml, 14 d and 28 d) is on record as “unsuccessful”.
Regarding `OC(Cn1cncn1)(Cn1cncn1)c1ccc(F)cc1F` [fluconazole, 2-(2,4-difluorophenyl)-1,3-bis(1H-1,2,4-triazol-1-yl)propan-2-ol, reference compound], in assay [1], the outcome of treatment is “unsuccessful”. Moreover, in the assay on T. rubrum NCPF0118, the MIC was determined as 360 µg/mL (≈ 1180 µM).
In the case of “dRdRdRdRdRdRdRdRdRdRdRdRdR ([dR][dR][dR][dR][dR][dR][dR][dR][dR][dR][dR][dR][dR]) [NP339]”, the “recoverable fungal growth after treatment” value in the assay with Candida (Experiments 6 and 7, 10% (w/v), 14 d or 28 d, daily) is given as “no recoverable fungal growth”.
